Assay [1] concerns NCI-H292 cells. Put plainly: Northern analysis for MUC5 gene expression in NCI-H292 cells. Particulars: EGF or TGFα 25 ng/ml, TNFα 20 ng/ml; 12 h, 24 h. Type of assay: cell-based, human. As for the experimental part:
Cell culture. A human pulmonary mucoepidermoid carcinoma cell line, NCI-H292 cells, were grown in RPMI11640 medium containing 10% fetal bovine serum, penicillin (100 U/ml), streptomycin (100 μg/ml) at 37° C. in a humidified 5% CO2 water-jacketed incubator. […] In inhibition studies with an EGF-R tyrosine kinase inhibitor, BIBX1522 (10 μg/ml, generously provided by Boehringer Ingelheim Inc., Ingelheim, Germany), cells were pretreated with BIBX1522 30 min before adding growth factors. After incubation, cells grown in a T-75 flask were used for total RNA extraction or protein extraction, and 8-chamber slides were used for Alcian blue/PAS-staining to visualize mucins.

Assay [2] has as its system NCI-H292 cells. Put plainly: MUC5AC mRNA and protein in NCI-H292 cells incubated with cigarette smoke solution (Example 7). The class given is cell-based, human. As to conditions: within 6 hours, increased at 12 hours. As for the experimental part: NCI-H292 cells, a human pulmonary mucoepidermoid carcinoma cell line, were grown in RPMI 1640 medium containing 10% fetal bovine serum, penicillin (100 U/ml), streptomycin (100 μg/ml) and Hepes (25 mM) at 37° C. in a humidified 5% CO2 water-jacketed incubator. Either 6-well culture plates or 8-chamber slides were used to culture the cells. When confluent, cells were incubated for 1 hour with cigarette smoke solution. The cells were then washed and incubated with fresh medium alone. Experiments were terminated at preselected times (for mRNA, 6 hours and 12 hours; for protein, 24 hours). As controls, cells were incubated with medium alone for same time periods. […] The effects of a selective inhibitor of platelet-derived growth factor receptor tyrosine kinase (tyrphostin AG1295, 100 μM, Calbiochem), and a negative control for tyrphostins (tyrphostin A1, 100 μM, Calbiochem) were also examined. The role of reactive oxygen species was examined using a scavenger of oxygen free radicals DMSO (1%, Sigma), or superoxide dismutase (SOD, 300 U/ml, Sigma).
In situ hybridization was performed using a human EGFR probe, which contains a 350-bp cDNA fragment of the human EGFR gene (pTRI-EGFR-human probe template, Ambion, Austin, Tex.) and a human MUC5AC probe, which contains a 298-bp cDNA fragment of the human MUC5AC gene, The 350-bp cDNA human EGFR was subcloned into pBluescript II SK-vector at Kpn I and EcoR I sites. This pBluescript was used to generate human EGFR antisense and sense probes. Hybridization was performed as described previously. Lou et al. (1998) Am. J. Respir. Crit. Care Med. 157:1927-1934. In brief, the cells grown on the 8-chamber slides were fixed in 4% paraformaldehyde, rehydrated in 0.5×SSC, and then acetylated in triethanolamine and acetic anhydride. Hybridization was carried out with 2500-4000 cpm/μl of antisense or sense probe in 50% deionized formamide, 0.3 M NaCl, 20 mM Tris, 5 mM EDTA, 1× Denhardt's solution, 20 mM dithiothreitol, 10% dextran sulfate, 0.5 mg/ml yeast tRNA, and 0.5 mg/ml sonicated salmon sperm DNA at 58° overnight. Posthybridization treatment consisted of washes with 2×SSC, 1 mM EDTA, 10 mM β-mercaptoethanol at room temperature, incubation with RNase solution (20 μg/ml) for 30 min at room temperature, and further washes in 0.1×SSC, 1 mM EDTA, 10 mM β-mercaptoethanol at 55° C. for 2 hours and then in 0.5×SSC at room temperature for 20 minutes. Specimens were dehydrated, air-dried, and covered with Kodak NBT nuclear track emulsion (Eastman Kodak, Rochester, N.Y.) for autoradiography. After exposure for 7 to 21 days at 4° C., the slides were developed, fixed, and counterstained with hematoxylin.
MUC5AC protein was measured as described previously. Takeyama et al. (1999) Proc. Natl. Acad. Sci. USA 96:3081-3086. In brief, cell lysates were prepared with PBS at multiple dilutions, and 50 μl of each sample was incubated with bicarbonate-carbonate buffer (50 μl) at 40° C. in a 96-well plate (Maxisorp Nunc, Fisher Scientific, Santa Clara, Calif.), until dry. Plates were washed three times with PBS and blocked with 2% bovine serum albumin, fraction V (Sigma) for 1 hour at room temperature. Plates were again washed three times with PBS and then incubated with 50 μl of MUC5AC mAb (1:1 00) that was diluted with PBS containing 0.05% Tween 20. After 1 hour, the wells were washed three times with PBS, and 100 μl horseradish peroxidase-goat anti-mouse IgG conjugate (1:10,000) was dispensed into each well. After 1 hour, plates were washed three times with PBS. Color reaction was developed with 3,3′,5,5′-tetramethylbenzidine (TMB) peroxidase solution (Kirkegaard & Perry Laboratories, Gaithersburg, Md.) and stopped with 2N H2S04. Absorbance was read at 450 nm.

Consider one substance from US7531500B2, “Preventing airway mucus production by administration of EGF-R antagonists” (The Regents of the University of California, priority 1998, dated 2009).

Consider “TGFα: transforming growth factor alpha, EGF-R ligand (recombinant human; rat synthetic in vivo)”, for which the “MUC5 gene expression on incubation with mediator” value in the assay on NCI-H292 cells [1] was “clearly expressed at 24 h”. In addition, in the assay on NCI-H292 cells [2], the “MUC5AC mRNA expression” value is reported as “increased”.
